Experimental data as given in publication PMC11374673, “Discovery of isoquinoline sulfonamides as allosteric gyrase inhibitors with activity against fluoroquinolone-resistant bacteria” (Nature Chemistry, 2024).
Values joined by “and” are separate entries in the source; they are usually repeats but may differ in a detail not shown here. Identical values can stand only once. “Also recorded” adds a separate entry of the source.

Tests used:
E. coli DNA gyrase = target: T1, E. coli DNA gyrase (Escherichia coli, UniProt P0AES4); test: Gyrase supercoiling inhibition, gel-based; assay type: biochemical
T1 construct: purchased Inspiralis Limited
T1 sequence (P0AES4 whole entry): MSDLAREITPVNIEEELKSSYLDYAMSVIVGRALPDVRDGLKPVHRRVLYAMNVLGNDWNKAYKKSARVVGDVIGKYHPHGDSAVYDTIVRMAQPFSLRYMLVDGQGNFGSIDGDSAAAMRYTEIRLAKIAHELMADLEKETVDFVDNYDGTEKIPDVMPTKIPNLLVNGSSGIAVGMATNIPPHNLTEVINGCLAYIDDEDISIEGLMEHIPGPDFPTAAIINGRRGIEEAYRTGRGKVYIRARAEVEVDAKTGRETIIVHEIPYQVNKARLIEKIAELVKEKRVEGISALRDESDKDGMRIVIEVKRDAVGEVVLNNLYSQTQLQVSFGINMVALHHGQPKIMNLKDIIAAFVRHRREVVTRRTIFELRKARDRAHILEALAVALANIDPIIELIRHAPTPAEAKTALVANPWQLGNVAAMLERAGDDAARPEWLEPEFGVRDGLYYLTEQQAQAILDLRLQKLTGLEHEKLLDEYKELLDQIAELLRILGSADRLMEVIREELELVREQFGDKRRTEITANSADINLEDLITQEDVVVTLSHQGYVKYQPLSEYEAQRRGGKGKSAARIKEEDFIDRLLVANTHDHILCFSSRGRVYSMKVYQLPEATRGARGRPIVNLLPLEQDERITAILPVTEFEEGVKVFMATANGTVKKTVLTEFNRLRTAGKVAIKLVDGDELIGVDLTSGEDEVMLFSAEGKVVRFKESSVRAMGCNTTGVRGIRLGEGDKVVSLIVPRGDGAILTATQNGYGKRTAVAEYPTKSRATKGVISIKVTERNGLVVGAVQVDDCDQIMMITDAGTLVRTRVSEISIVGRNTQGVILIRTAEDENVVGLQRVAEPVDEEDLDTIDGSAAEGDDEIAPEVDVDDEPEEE
Experimental: Of this stock solution, 27 µl was aliquoted for each reaction in 1.5 ml Eppendorf tubes and supplemented with 0.6 µl of the appropriate compound dilution or corresponding solvent with a final DMSO concentration of 2%. The reactions were started with 3 µl of enzyme (1 U for WT gyrase retrieved from Inspiralis Limited or 25–30 nM gyrase variants purified in house) in dilution buffer (50 mM Tris–HCl (pH 7.5), 100 mM KCl, 2 mM DTT, 1 mM EDTA and 50% (wt/vol) glycerol) for a final volume of 30 µl. Reactions were run at 37 °C for 30 min and stopped with the addition of 30 µl STEB buffer (40% (wt/vol) sucrose, 100 mM Tris–HCl pH 8, 100 mM EDTA, 0.5 mg ml^−1 bromophenol blue) and 30 µl of a chloroform:isoamyl alcohol solution (24:1 vol/vol). After brief vortexing and centrifugation at 2,300g for 1 min, 20 µl of the aqueous phase was loaded onto 1% (wt/vol) agarose gels in TAE ([…]) gel. The gels were run at 85 V for 2 h followed by staining (15 min) in 1 µg ml^−1 ethidium bromide and destaining (5–10 min) in water. […] IC50 curves were generated in GraphPad Prism (v9.0.0) using the non-linear regression curve fit variable slope with four parameters and least squares regression. A. baumannii and P. aeruginosa gyrase supercoiling inhibition assays were set up in the same way as E. coli gyrase supercoiling assays. The enzyme was retrieved from Inspiralis Ltd. (PAG1001 and ABG1001) and tested in-house for activity with ×5 U enzyme used for each reaction.

E. coli BW25113 = test: Bacterial cytological profiling (BCP); assay type: cell-based, Escherichia coli; set-up: DAPI total area / DAPI nucleoid area / DIC area / DIC curvature / DIC feret / DIC length / DIC orientation: unit not given here; conditions: for DAPI aspect ratio / DAPI circularity / DAPI nucleoid area / DAPI nucleoids / DAPI perimeter / DAPI roundness / DAPI solidity / DAPI total area / DIC area / DIC aspect ratio / DIC circularity / DIC curvature / DIC feret / DIC length / DIC orientation / DIC perimeter / DIC roundness / DIC sinuosity / DIC solidity / DIC width / Decondensation / DIC angularity / DAPI intensity / SYTOX Green intensity: BCP; for morphological phenotype: BCP microscopy, 6.25 µM; for DIC angularity: 2 h, AMP 12.5, RIF 12.5, TET 6.25, CIP 0.0625, LEI-801 6.25, LEI-800 6.25 µM, average ± SD of 3 replicates; for DAPI intensity / SYTOX Green intensity: standardized to DMSO control
Experimental: Overnight E. coli BW25113 cultures were diluted 1:100 in fresh LB medium in a 100 ml Erlenmeyer flask and incubated at 120 r.p.m. and 37 °C. When OD600 >0.2, the cultures were diluted to OD600 of 0.1 in fresh LB medium with a final volume of 200 µl in a 2 ml Eppendorf tube. The appropriate antibiotic or control treatment was applied and the samples were incubated at 200 r.p.m. and 30 °C for 2 h. Subsequently, 4,6-diamidino-2-phenylindole (DAPI) (2 µg ml^−1), FM4-64 (2 µg ml^−1) and SYTOX Green (0.5 µM) were added to reach the desired concentration and the samples were incubated a further 10 min. The samples were then centrifuged at 3,300g for 50 s and the pellets resuspended in half the original volume. From this suspension, 5 µl was spotted onto a 2.0% agarose pad for microscopy.
Microscopy was performed on a Zeiss Axio Observer Z1/7 inverted microscope.
For the qualitative assessment of the bacterial morphology, the acquired images were first pre-processed in ImageJ (v1.53m)[47]. Thereafter the brightness and contrast were adjusted to allow the clearest visual inspection of the particular phenotype. For the quantitative BCP, DIC images were first pre-processed and then a random forest classifier was trained with Illastik (v1.3.3)[48] to generate a segmented image. These binary masks were then combined together with the original DIC image and processed with the ImageJ plugin MicrobeJ (v 5.13l)[49]. MicrobeJ generated cell outlines and performed measurements on cell shape accordingly. The recorded cell outlines produced by MicrobeJ were exported and used as a guide to characterize the DNA shape within each bacterium using a custom-made ImageJ macro (Appendix II). DAPI and SYTOX Green intensity were measured on raw images in a similar manner. Then, by hand, polygons were drawn that excluded bacteria to determine background intensity. After background correction the intensity was standardized to the DMSO control within the same biological replicate. For PCA, the BCP assay was executed for three independently biological replicates. During each experiment, images were acquired until 24 or more bacteria in total had been observed. Following feature extraction for each replicate, principal component analysis was performed using GraphPad Prism (v9.0.0) using multiple variable analysis with standardized data. Principal components (PCs) were selected based on the per cent of total explained variance (minimum 80%).

E. coli = test: Checkerboard assay LEI-800 with CIP; assay type: cell-based, Escherichia coli;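 note: bacterial growth read as OD600 after 20 h at 37 °C with shaking, each drug pair tested in triplicate wells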
[1] = Ciprofloxacin 0 nM + LEI-800 0.1 µM
[2] = Ciprofloxacin 0 nM + LEI-800 0.2 µM
[3] = Ciprofloxacin 0 nM + LEI-800 0.4 µM
[4] = Ciprofloxacin 0 nM + LEI-800 0.8 µM
[5] = Ciprofloxacin 0 nM + LEI-800 3.1 µM
[6] = Ciprofloxacin 0 nM + LEI-800 6.2 µM

For O=S(=O)(NC[C@@H]1CC[C@H](c2ccc(-c3cccnc3)cc2)N1)c1cccc2cnccc12 [LEI-800], the IC50 (E. coli DNA gyrase) was 35 nM, the “fold more potent than CIP” value (E. coli DNA gyrase; supercoiling IC50 ratio) was > 25 fold and the “PCA clustering of 24 BCP features” value (E. coli BW25113) was “formed a cluster by itself”. The DAPI aspect ratio (E. coli BW25113) was 5.858 ± 1.821, the DAPI circularity (E. coli BW25113) was 0.365 ± 0.084 and the DAPI nucleoid area (E. coli BW25113) was 6.481 ± 2.006. It also gave a DAPI nucleoids (E. coli BW25113) of 1.368 ± 0.202, a DAPI perimeter (E. coli BW25113) of 16.318 ± 5.417 and a DAPI roundness (E. coli BW25113) of 0.220 ± 0.035. For the same compound, the DAPI solidity (E. coli BW25113) was 0.808 ± 0.077, the DAPI total area (E. coli BW25113) was 8.438 ± 3.339 and the DIC area (E. coli BW25113) was 13.636 ± 0.225. For the same compound, the DIC aspect ratio (E. coli BW25113) was 6.808 ± 0.283, the DIC circularity (E. coli BW25113) was 0.292 ± 0.021 and the DIC curvature (E. coli BW25113) was 0.034 ± 0.003. It also gave a DIC feret (E. coli BW25113) of 11.758 ± 0.377, a DIC length (E. coli BW25113) of 11.910 ± 0.403 and a DIC orientation (E. coli BW25113) of 88.418 ± 18.119. It also gave a DIC perimeter (E. coli BW25113) of 25.156 ± 0.728, a DIC roundness (E. coli BW25113) of 0.139 ± 0.012 and a DIC sinuosity (E. coli BW25113) of 1.021 ± 0.003. For the same compound, the DIC solidity (E. coli BW25113) was 0.793 ± 0.033, the DIC width (E. coli BW25113) was 1.163 ± 0.063 and the Decondensation (E. coli BW25113) was 0.616 ± 0.234. The “morphological phenotype” value (E. coli BW25113) was “elongation of the bacteria and condensation of the DNA; also recorded: phenotype resembling the CIP and TET morphological profile”, the DIC angularity (E. coli BW25113) was 0.076 ± 0.010 and the DAPI intensity (E. coli BW25113) was 0.513 ± 0.191. The “SYTOX Green intensity” value (E. coli BW25113) was 2.259 ± 1.119, the “checkerboard plate reading, Average values” (E. coli; [1]) was 0.7858 and the “checkerboard plate reading, replicate wells” value (E. coli; [1]) was 0.7683 and 0.7669 and 0.8222. The “checkerboard plate reading, Average values” (E. coli; [2]) was 0.7715, the “checkerboard plate reading, replicate wells” value (E. coli; [2]) was 0.7509 and 0.7706 and 0.7931 and the “checkerboard plate reading, Average values” (E. coli; [3]) was 0.7601. For the same compound, the “checkerboard plate reading, replicate wells” value (E. coli; [3]) was 0.7802 and 0.7598 and 0.7404, the “checkerboard plate reading, Average values” (E. coli; [4]) was 0.5878 and the “checkerboard plate reading, replicate wells” value (E. coli; [4]) was 0.6002 and 0.5903 and 0.5728. The “checkerboard plate reading, Average values” (E. coli; [5]) was 0.291, the “checkerboard plate reading, replicate wells” value (E. coli; [5]) was 0.2991 and 0.2865 and 0.2872 and the “checkerboard plate reading, Average values” (E. coli; [6]) was 0.1602. For the same compound, the “checkerboard plate reading, replicate wells” value (E. coli; [6]) was 0.157 and 0.1619 and 0.1616 and the “checkerboard plate reading, Average values” (E. coli; Ciprofloxacin 0 nM + LEI-800 […]) was 0.4748.

For O=S(=O)(NC[C@H]1CC[C@@H](c2ccc(-c3ccc(F)nc3)cc2)N1)c1cccc2cnccc12 [LEI-801], the IC50 (E. coli DNA gyrase) was 440 nM, the “fold less potent than LEI-800” value (E. coli DNA gyrase; supercoiling IC50 ratio) was 13 fold and the “PCA clustering of 24 BCP features” value (E. coli BW25113) was “clustered with DMSO”. For the same compound, the DAPI aspect ratio (E. coli BW25113) was 2.179 ± 0.107, the DAPI circularity (E. coli BW25113) was 0.723 ± 0.016 and the DAPI nucleoid area (E. coli BW25113) was 2.366 ± 0.636. It also gave a DAPI nucleoids (E. coli BW25113) of 1.288 ± 0.064, a DAPI perimeter (E. coli BW25113) of 6.375 ± 0.894 and a DAPI roundness (E. coli BW25113) of 0.484 ± 0.024. It also gave a DAPI solidity (E. coli BW25113) of 0.916 ± 0.005, a DAPI total area (E. coli BW25113) of 2.897 ± 0.869 and a DIC area (E. coli BW25113) of 3.335 ± 0.139. The DIC aspect ratio (E. coli BW25113) was 2.661 ± 0.151, the DIC circularity (E. coli BW25113) was 0.699 ± 0.026 and the DIC curvature (E. coli BW25113) was 0.150 ± 0.018. For the same compound, the DIC feret (E. coli BW25113) was 3.227 ± 0.127, the DIC length (E. coli BW25113) was 3.253 ± 0.128 and the DIC orientation (E. coli BW25113) was 96.714 ± 3.816. It also gave a DIC perimeter (E. coli BW25113) of 7.768 ± 0.245, a DIC roundness (E. coli BW25113) of 0.422 ± 0.025 and a DIC sinuosity (E. coli BW25113) of 1.026 ± 0.005. The DIC solidity (E. coli BW25113) was 0.962 ± 0.004, the DIC width (E. coli BW25113) was 1.085 ± 0.030 and the Decondensation (E. coli BW25113) was 0.863 ± 0.226. The “morphological phenotype” value (E. coli BW25113) was “phenotype that is consistent with the DMSO control”, the DIC angularity (E. coli BW25113) was 0.123 ± 0.008 and the DAPI intensity (E. coli BW25113) was 1.156 ± 0.345. For the same compound, the “SYTOX Green intensity” value (E. coli BW25113) was 1.000 ± 0.284.
